Experimental data: US20160367497A1, “METHODS AND COMPOSITIONS FOR TREATING NEUROPATHIES” (Washington University, priority 2007, published 2016)

Tests used:
[1] = test system: DRG neuronal explant cultures; experiment: in vitro Wallerian degeneration assay, DRG explant neurite transection; assay type: cell-based, mouse; conditions: for neurite protection after transection: 1 mM applied for 24 hours before neurite transection; for increase in intact neurites at 48 hours after transection: 1 mM exogenous application for 24 hours
Protocol: To identify the mechanism of delayed axonal degeneration mediated by the Wlds protein, we employed an in-vitro Wallerian degeneration model. Primary DRG explant neurons were infected with lentivirus expressing the appropriate proteins, and axons were injured by either removal of the neuronal cell body (transection) or growth in vincristine (toxic).
Mouse DRG explants from E12.5 embryos were cultured in the presence of 1 nM nerve growth factor. Non-neuronal cells were removed from the cultures by adding 5-fluorouracil to the culture medium. Transection of neurites was performed at 10-20 DIV using an 18-gauge needle to remove the neuronal cell bodies. Incubation with β-nicotinamide adenine dinucleotide (Sigma) or Sirtinol (Calbiochem) was performed using conditions indicated in the text or figures.
Quantitative analysis of axonal degeneration was performed as previously described (Zhai, et al., Neuron 39:217-25, 2003). Briefly, the cultures were examined using phase contrast microscopy at the indicated times. Axons with a fragmented, non-refractile appearance were designated as “degenerated.” At each time point, at least 200 singly distinguishable axons were blindly scored from several randomly taken images of each culture. Each condition was tested in triplicate explants in each experiment. Results were obtained from 2-4 independent experiments for each condition. Statistical analysis was performed by Student's T test. For calculations of neurite-covered area, digitally captured images from quadruplicate samples of two independent experiments were analyzed using analysis 3.1 software (Soft Imaging System, Lakewood, Colo.).
Cell culture, in vitro axotomy, and quantification of axonal degeneration. Mouse DRG explants from E12.5 embryos were cultured in the DMEM containing 10% FCS and 1 nM nerve growth factor. Non-neuronal cells were removed from the cultures by adding 5-fluorouracil to the culture media. Transection of neurites was performed at 14-21 DIV using an 18-gauge needle to remove the neuronal cell bodies. Lentiviral expression vectors were generated. Lentiviral infection was performed 3-7 days prior to axonal transection for 24 hr. Quantitative analysis of neurite degeneration was performed.

[2] = test system: neuro2A cells; experiment: neurite outgrowth in Neuro2a cells; assay type: cell-based
Protocol: FIG. 11A-D illustrates the resveratrol and AICAR stimulation of neurite outgrowth in Neuro2a cells. Neuro2a cells were switched to serum-starvation medium (medium containing 0.2% FCS) and treated with DMSO (vehicle control), resveratrol (10 μM) or AICAR (1 mM). (A) Serum deprivation of Neuro2a cells results in growth of short neurites that increase in length over 72 h. (B) Resveratrol induced rapid neurite outgrowth resulting in elaborate neurite network formation by 48 h. (C) AICAR stimulated extensive neurite outgrowth similar to that observed with resveratrol. (D).
FIG. 12A-M illustrates the dependency of resveratrol-induced neurite outgrowth and mitochondrial biogenesis on AMPK. Neuro2a cells were infected with lentivirus expressing GFP only (FUGW, control), dominant negative AMPK (dnAMPK) or constitutively active AMPK (caAMPK). Three days later cells were shifted to serum-starvation medium containing DMSO (control) or resveratrol (10 μM). In addition, uninfected Neuro2a cells in serum-starvation medium were treated with resveratrol alone, the AMPK inhibitor Compound C (CC, Biomol International L.P. (Plymouth Meeting, Pa.)) (10 μM) alone or with resveratrol and CC together. Images of the cultures captured in bright field and green fluorescence were overlaid to visualize neurite outgrowth. […] Neurite length in cells treated with caAMPK+resveratrol is also shown (G). […] Values were normalized to the 18S transcript. Data shown is representative of two independent experiments.
Cell culture and Reagents. Neuro2 cells obtained from ATCC were grown in MEM with 1.5 g/L sodium bicarbonate, 0.1 mM nonessential amino acids, 0.1 mM sodium pyruvate, 2 mM L-glutamine with 10% FCS. For differentiation, cells were switched to serum-starvation medium (containing 0.2% FCS). For neurite outgrowth measurements, experiments were done in quadruplicate and 100 neurites per well were randomly measured using the Metamorph software. Dorsal root ganglia sensory and cortical neurons were established from E13.5 mouse embryos, maintained in neurobasal medium supplemented with B27 (and NGF for DRG neurons) and infected with lentiviruses as described (Araki et al., 2004, Science 305:1010-1013; Hawley et al., 2005, Cell Metab 2:21-23). Resveratrol was a gift from Sirtris Pharmaceuticals (Cambridge Mass.) and AICAR was obtained from Toronto Research (North York, Canada). Splitomycin and Compound C were purchased from Biomol (Plymouth Meeting, Pa.) and Calbiochem (San Diego, Calif.). Sirtinol and nicotinamide were purchased from Sigma (Saint Louis, Mo.)
Neuro2a cells are a widely used as in vitro model of neuronal differentiation. These cells cease to proliferate and begin to differentiate, as evidenced by neurite outgrowth, in response to serum starvation, retinoic acid, or growth factors like neurotrophins and GDNF family ligands. […] Neuro2a cells grown under serum starvation conditions (0.2% fetal calf serum) were treated with AICAR (1 mM) or resveratrol (10 μM).
Since resveratrol activated AMPK and altered the differentiation of Neuro2a cells, we next asked whether AMPK activity was required for resveratrol-induced neurite outgrowth. To address this issue, we infected Neuro2a cells with lentivirus expressing either GFP alone (FUGW-control) or dominant negative AMPK (dnAMPK). After 3 days growth to allow robust lentiviral transgene expression, the medium was replaced with serum starvation medium. […] Resveratrol-induced neurite outgrowth was reduced in the presence of the AMPK pharmacological inhibitor Compound C (CC 10 μM) further supporting the importance of AMPK activity for resveratrol-induced neurite outgrowth.

[3] = test system: Tfam, PGC-1α and MFN2 mRNA; experiment: mitochondrial biogenesis markers, quantitative RT-PCR in Neuro2a cells; assay type: cell-based; conditions: with resveratrol 10 μM; Compound C 10 μM or dominant negative AMPK expression
Protocol: Three days later cells were shifted to serum-starvation medium containing DMSO (control) or resveratrol (10 μM). In addition, uninfected Neuro2a cells in serum-starvation medium were treated with resveratrol alone, the AMPK inhibitor Compound C (CC, Biomol International L.P. (Plymouth Meeting, Pa.)) (10 μM) alone or with resveratrol and CC together. […] Values were normalized to the 18S transcript. Data shown is representative of two independent experiments.
Protein and mRNA analysis. […] Quantitative RT-PCR analysis was performed using Sybr-Green methodology on a model 7700 instrument (Applied Biosystems) as previously described (Araki et al., 2004, Science 305:1010-1013).
We treated Neuro2a cells for 3d with either DMSO (control) or resveratrol (10 μM) in the presence or absence of the AMPK inhibitor Compound C (10 μM). We assessed mitochondrial biogenesis by monitoring mRNA levels of mitofusin 2 (MFN2), a mitochondrial protein and marker of mitochondrial mass and two key regulators of mitochondrial biogenesis, peroxisome proliferator activated receptor γ coactivator 1α (PGC1α) and mitochondrial transcription factor A (Tfam) (Kelly, et al., 2004, Genes Dev 18:357-368).

[4] = test system: DRG neurons; experiment: axonal injury of DRG neurons after hypoxia and reoxygenation; assay type: cell-based; conditions: preincubation 45 min or lentiviral expression; 0.1% O2 8 or 16 hrs, 20 hrs reoxygenation
Protocol: FIG. 18 illustrates that activation of AMPK protects axons while inhibition of AMPK function enhances axonal injury during oxygen deprivation.
To examine whether AMPK activation prior to hypoxic stress protects axons from injury, either constitutively active AMPK (CaAMPK) was expressed in DRG neurons, or neurons were preincubated with the AMPK activator AICAR for 45 min prior to hypoxia. […] Thus, treatments that increase AMPK activity (e.g. resveratrol, AICAR) can block the axonal damage and are neuroprotective.

[5] = test system: optic nerve (retinal ganglion cell axons); experiment: optic nerve transection after intravitreal injection, neurofilament Western blot; assay type: in vivo, rat; conditions: 24 hours before transection, 4 days after transection
Protocol: FIG. 9 illustrates optic nerve transection after intravitreal injection of NAD biosynthetic substrates NAD, NMN, NmR, or Nam was injected into intravitreal compartment of left rat eye and allowed to incorporate retinal ganglion cells for 24 hours after which, left optic nerve was transected by eye enucleation and right and left optic nerves were collected at 4 days after transection and analyzed by Western blotting in which optic nerves transected from […] without any treatment prior to axotomy were used for negative control; showing in the figure, the quantitative analysis data of percentage of remaining neurofilament immunoreactivity from transected optic nerve relative to non-transected±S.D.
Administration of NAD biosynthetic substrates and optic Nerve transection. Nam, NMN, NmR, or NAD was dissolved in PBS at the concentration of 100 mM or 1 M. Each of 5 μl solution was injected into left intravitreal component under the anesthesia at a rate of […]. The left optic nerve was transected at 24 hours after intravitreal injection and optic nerve was recovered at indicated time. Optic nerve tissue was homogenized in 100 μl of a buffer containing 100 mM tris-HCl (pH 6.8), 1% SDS, and 1 mM DTT. Fifty μg of protein for each sample was analyzed by the Western blotting using anti-neurofilament antibody 2H3 (Developmental Studies Hybridoma Center) and peroxidase-conjugated secondary antibody (Jackson ImmunoResearch). The degeneration rate was calculated from the ratio of the neurofilament immunoreactivity of transected vs. contralateral nerves.
Transection of optic nerve is an in vivo model which can be used to investigate mechanisms leading to Wallerian degeneration and following retinal ganglion cell (RGC) death observed in human diseases such as glaucoma. In the C57BL/Wlds mouse strain, optic nerve degeneration during Wallerian degeneration after axotomy is dramatically slowed. In addition, intravitreal injection is used for screening of compounds that protect RGC axon from degeneration in vivo and thus we can asses the axon protective effect of each NAD biosynthetic substrates in vive by intraocular injection of compounds including NAD, NMN, NmR, and Nam. From in vitro Wallerian degeneration assay, 1 mM of NAD, NMN, and NmR in the culture media is enough to protect axon from degeneration. We initially injected 5 μl of 100 mM or 1 M NAD solution into left intravitreal compartment. After 24 hours incubation, left optic nerve was transected and control (right) and axotomized (left) optic nerve were collected at 3, 4, and 5 days after transection. Neurofilament immunoreactivity from the axotomized optic nerve was measured and normalized against the value obtained from the right side of the optic nerve.

[6] = test system: neuro2A cells; experiment: cellular ATP levels, luciferase-based assay in neuro2A cells; assay type: cell-based; conditions: 2 hr
Protocol: To explore the role of polyphenols, in particular, of resveratrol, we tested whether resveratrol altered the activity of AMPK in neuronal cells. Neuro2a neuroblastoma cells were treated with resveratrol (10 μM) and AMPK activation was examined using phospho-AMPK specific antibodies. […] To confirm that AMPK activation by resveratrol results in typical AMPK-mediated downstream responses, we monitored phosphorylation of ACC (acetyl Co-A carboxylase), a primary target of activated AMPK. […] To examine a potential mechanism of resveratrol-mediated AMPK activation, we measured cellular ATP levels as a decreased ATP:AMP ratio increases the phosphorylation of AMPK. ATP levels were monitored using a luciferase-based assay in neuro2A cells treated with resveratrol or Oligomycin, an inhibitor of mitochondrial oxidative phosphorylation and therefore ATP production. While the ATP concentration dropped from 5.874 μM in DMSO-treated cells (control) to 0.976 μM in Oligomycin treated cells within 2 hr, the ATP concentration in resveratrol-treated Neuro2a cells was not altered from control either at 2 hr (6.33 μM) or 24 hr (6.42 μM).

| Structure (SMILES) | neurofilament immunoreactivity of axotomized optic nerve, of non-axotomized optic nerve ([5]; 5 μl of 100 mM intravitreal) | neurite protection after transection [1] | increase in intact neurites at 48 hours after transection [1] | other results |
| --- | --- | --- | --- | --- |
| NC(=O)c1cccc(N)c1 [3AB, 3-aminobenzamide, reference compound] | – | – | – | effect on NAD-dependent axonal protection (NDAP) ([1]; neurons cultured in 1 mM NAD, Sirtinol 100 μM, 3AB 20 mM or siRNA lentivirus, 12 to 72 hr after transection): had no effect on NDAP |
| c1cc(-c2cnn3cc(-c4ccc(OCCN5CCCCC5)cc4)cnc23)ccn1 [Compound C] | – | – | – | effect on resveratrol-stimulated neurite outgrowth ([2]; resveratrol 10 μM, Compound C 10 μM, SIRT1 inhibitors, STO 609 2.5 μM or dnAMPK expression): reduced; neurite growth, inhibitor by itself ([2]; without resveratrol): did not cause any significant inhibition of neurite growth; effect on resveratrol-induced upregulation of mitochondrial markers [3]: severely diminished; axonal injury (axonal beading) after hypoxia [4]: severe axonal injury |
| NC(=O)c1ccc[n+]([C@@H]2O[C@H](COP(=O)([O-])OP(=O)(O)OC[C@H]3O[C@@H](n4cnc5c(N)ncnc54)[C@H](O)[C@@H]3O)[C@@H](O)[C@H]2O)c1 [NAD, nicotinamide adenine dinucleotide] | 78±22% | – | – | neurofilament immunoreactivity of axotomized optic nerve, of non-axotomized optic nerve ([5]; 5 μl of 1 M intravitreal): 77±27% |
| NC(=O)c1ccc[n+]([C@@H]2O[C@H](COP(=O)([O-])O)[C@@H](O)[C@H]2O)c1 [NMN, nicotinamide mononucleotide] | 60±25% | successfully saved neurites from degeneration | comparable increase in intact neurites | – |
| O=C(O)c1cccnc1 [Na, nicotinic acid] | – | failed to save neurites | – | – |
| Nc1ncnc2c1ncn2[C@@H]1O[C@H](COP(=O)(O)OP(=O)(O)OC[C@H]2O[C@@H]([n+]3cccc(C(=O)O)c3)[C@H](O)[C@@H]2O)[C@@H](O)[C@H]1O [NaAD, nicotininc acid adenine dinucleotide] | – | slight protection | less increase in intact neurites at 48 hours compared with NAD | – |
| O=C(O)c1ccc[n+]([C@@H]2O[C@H](COP(=O)(O)O)[C@@H](O)[C@H]2O)c1 [NaMN, nicotinate mononucleotide] | – | saved neurites as well as NAD | comparable increase in intact neurites | – |
| NC(=O)c1ccc[n+]([C@@H]2O[C@H](CO)[C@@H](O)[C@H]2O)c1 [NmR, nicotinamide riboside] | 72±19% | saved neurites as well as NAD | comparable increase in intact neurites | – |
| CC[C@H]1/C=C/C=C/C[C@@H](C)[C@H](O)[C@@](C)(O)C(=O)[C@@H](C)[C@H](O)[C@@H](C)C(=O)[C@@H](C)[C@H](O)[C@@H](C)/C=C/C(=O)O[C@@H]2[C@H](C)[C@H](CC1)O[C@]1(CC[C@H](C)[C@H](C[C@@H](C)O)O1)[C@H]2C [Oligomycin, reference compound] | – | – | – | ATP concentration [6]: 0.976 µM |
